Twelve compounds from patent publication US11739098B2 (BRISTOL-MYERS SQUIBB COMPANY, priority 2017, dated 2023) can be followed below.

pIC50: −log10 of the molar value.

Type in all cases: cell-based
The target of assay [1] is T1, human TLR8 (Homo sapiens, UniProt Q9NR97).
T1 construct: host or cells: HEK-Blue cells (HEK293-derived reporter line)
T1 sequence (Q9NR97 27-1041): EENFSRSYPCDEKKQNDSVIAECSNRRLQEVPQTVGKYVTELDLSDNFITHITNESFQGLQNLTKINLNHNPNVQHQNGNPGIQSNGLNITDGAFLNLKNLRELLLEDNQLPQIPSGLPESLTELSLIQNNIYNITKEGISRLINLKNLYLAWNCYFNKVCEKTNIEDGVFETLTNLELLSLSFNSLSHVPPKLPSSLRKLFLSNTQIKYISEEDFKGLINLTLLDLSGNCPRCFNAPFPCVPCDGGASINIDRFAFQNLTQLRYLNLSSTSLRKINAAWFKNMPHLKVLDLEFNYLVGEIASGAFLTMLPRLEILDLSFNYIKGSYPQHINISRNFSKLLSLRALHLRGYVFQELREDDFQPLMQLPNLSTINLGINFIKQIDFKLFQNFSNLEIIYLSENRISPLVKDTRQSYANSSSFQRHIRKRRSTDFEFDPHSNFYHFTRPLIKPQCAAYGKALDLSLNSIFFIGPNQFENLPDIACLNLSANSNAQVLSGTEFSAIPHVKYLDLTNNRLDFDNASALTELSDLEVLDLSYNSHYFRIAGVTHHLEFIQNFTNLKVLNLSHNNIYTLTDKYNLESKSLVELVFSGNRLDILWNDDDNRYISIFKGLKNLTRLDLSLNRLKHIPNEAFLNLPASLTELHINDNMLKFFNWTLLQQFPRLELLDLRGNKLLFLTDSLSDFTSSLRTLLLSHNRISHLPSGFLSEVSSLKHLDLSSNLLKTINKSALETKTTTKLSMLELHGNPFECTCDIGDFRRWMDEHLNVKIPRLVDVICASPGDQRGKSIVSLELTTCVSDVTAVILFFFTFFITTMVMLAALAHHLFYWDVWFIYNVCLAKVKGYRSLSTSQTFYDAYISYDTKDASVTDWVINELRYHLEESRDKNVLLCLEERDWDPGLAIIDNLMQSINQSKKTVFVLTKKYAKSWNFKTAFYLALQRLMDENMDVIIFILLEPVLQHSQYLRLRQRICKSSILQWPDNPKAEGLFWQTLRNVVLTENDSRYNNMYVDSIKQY
Kind of assay: TLR8 inhibition reporter assay (HEK-Blue cells, SEAP reporter, R848 stimulation). Conditions: HEK-Blue cells overexpressing human TLR8, SEAP reporter, R848 15.9 μM. In short, it runs like this:
(§1)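 HEK-Blue cells overexpressing the receptor, with NF-κB/AP-1-driven SEAP, were pre-treated 30 min at room temperature with compound (0.05 nM–50 μM), then stimulated with gardiquimod 7.5 μM (TLR7), R848 15.9 μM (TLR8) or ODN2006 5 nM (TLR9). SEAP was read after 22 h at 37 °C as percent inhibition.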
On the technique in general: In a reporter assay the amount or activity of a reporter protein is the signal.

The target of assay [2] is T2, human TLR7 (Homo sapiens, UniProt Q9NYK1).
T2 construct: host or cells: HEK-Blue cells (HEK293-derived reporter line)
T2 sequence (Q9NYK1 27-1049): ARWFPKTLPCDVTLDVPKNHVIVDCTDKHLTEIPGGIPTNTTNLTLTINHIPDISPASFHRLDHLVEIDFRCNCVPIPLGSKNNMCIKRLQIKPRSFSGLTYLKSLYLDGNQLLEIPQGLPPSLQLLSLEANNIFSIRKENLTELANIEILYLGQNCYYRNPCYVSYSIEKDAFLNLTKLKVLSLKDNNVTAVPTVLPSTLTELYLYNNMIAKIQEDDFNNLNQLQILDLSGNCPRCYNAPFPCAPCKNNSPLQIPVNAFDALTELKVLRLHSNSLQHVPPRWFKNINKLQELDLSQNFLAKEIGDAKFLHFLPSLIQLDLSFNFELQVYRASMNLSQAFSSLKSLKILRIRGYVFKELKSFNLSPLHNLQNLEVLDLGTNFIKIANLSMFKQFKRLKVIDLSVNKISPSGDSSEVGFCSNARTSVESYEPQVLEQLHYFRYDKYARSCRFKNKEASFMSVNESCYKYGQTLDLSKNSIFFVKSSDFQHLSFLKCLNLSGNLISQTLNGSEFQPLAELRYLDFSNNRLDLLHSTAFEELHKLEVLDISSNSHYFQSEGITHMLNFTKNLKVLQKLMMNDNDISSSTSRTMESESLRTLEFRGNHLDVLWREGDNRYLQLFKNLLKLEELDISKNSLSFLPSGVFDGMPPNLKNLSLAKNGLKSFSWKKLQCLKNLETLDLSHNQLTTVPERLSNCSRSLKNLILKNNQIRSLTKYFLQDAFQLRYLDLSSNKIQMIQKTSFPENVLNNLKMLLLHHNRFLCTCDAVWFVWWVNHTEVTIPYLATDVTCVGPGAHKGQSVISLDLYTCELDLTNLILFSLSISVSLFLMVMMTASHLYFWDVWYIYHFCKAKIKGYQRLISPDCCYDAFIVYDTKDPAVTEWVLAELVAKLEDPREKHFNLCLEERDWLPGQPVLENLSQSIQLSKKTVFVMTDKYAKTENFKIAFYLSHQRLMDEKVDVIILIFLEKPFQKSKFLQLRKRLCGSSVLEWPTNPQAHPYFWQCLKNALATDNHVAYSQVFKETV
Kind of assay: TLR7 inhibition reporter assay (HEK-Blue cells, SEAP reporter, gardiquimod stimulation). Conditions: HEK-Blue cells overexpressing human TLR7, SEAP reporter, gardiquimod 7.5 μM. Put shortly: as §1

Assay [3] concerns the target T3, human TLR9 (Homo sapiens, UniProt Q9NR96).
T3 construct: host or cells: HEK-Blue cells (HEK293-derived reporter line)
T3 sequence (Q9NR96 26-1032): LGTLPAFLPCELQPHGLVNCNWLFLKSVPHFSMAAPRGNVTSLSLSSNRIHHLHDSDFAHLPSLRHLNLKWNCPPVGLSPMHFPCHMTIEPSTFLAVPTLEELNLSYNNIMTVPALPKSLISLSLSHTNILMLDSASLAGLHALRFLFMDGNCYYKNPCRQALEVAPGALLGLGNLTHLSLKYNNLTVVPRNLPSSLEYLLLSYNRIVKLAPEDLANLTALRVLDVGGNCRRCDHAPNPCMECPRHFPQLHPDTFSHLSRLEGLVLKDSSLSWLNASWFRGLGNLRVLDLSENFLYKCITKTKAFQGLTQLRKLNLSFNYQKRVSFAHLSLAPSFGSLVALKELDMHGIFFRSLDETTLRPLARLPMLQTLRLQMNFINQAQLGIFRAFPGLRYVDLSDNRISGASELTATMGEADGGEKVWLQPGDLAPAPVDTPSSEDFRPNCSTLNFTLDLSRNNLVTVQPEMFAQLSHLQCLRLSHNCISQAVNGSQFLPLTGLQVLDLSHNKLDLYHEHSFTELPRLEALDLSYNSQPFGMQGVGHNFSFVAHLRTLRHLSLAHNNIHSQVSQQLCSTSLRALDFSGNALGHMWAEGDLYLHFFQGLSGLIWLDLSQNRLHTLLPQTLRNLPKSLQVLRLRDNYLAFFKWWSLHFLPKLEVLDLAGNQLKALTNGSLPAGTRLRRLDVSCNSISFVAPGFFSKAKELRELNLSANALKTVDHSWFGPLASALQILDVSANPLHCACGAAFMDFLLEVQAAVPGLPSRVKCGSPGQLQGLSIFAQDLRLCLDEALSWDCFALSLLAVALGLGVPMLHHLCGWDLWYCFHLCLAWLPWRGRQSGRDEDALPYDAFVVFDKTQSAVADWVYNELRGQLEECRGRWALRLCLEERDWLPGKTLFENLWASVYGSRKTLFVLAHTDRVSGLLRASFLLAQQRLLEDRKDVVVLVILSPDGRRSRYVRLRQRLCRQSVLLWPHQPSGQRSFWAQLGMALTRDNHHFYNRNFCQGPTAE
The experiment in a line: TLR9 inhibition reporter assay (HEK-Blue cells, SEAP reporter, ODN2006 stimulation). Conditions: HEK-Blue cells overexpressing human TLR9, SEAP reporter, ODN2006 5 nM. Put shortly:
as §1

By pIC50 is commonly meant the negative decadic logarithm of the IC50, by convention in mol/L. A high value points to a low IC50. `CC(C)c1c(-c2cc(CO)c3nccn3c2)[nH]c2ccc(C3CCN(C(=O)CN(C)C)CC3)cc12` [Example 492, 2-(dimethylamino)-1-(4-(2-(8-(hydroxymethyl)imidazo[1,2-a]pyridin-6-yl)-3-isopropyl-1H-indol-5-yl)piperidin-1-yl)ethan-1-one]: the pIC50 in assay [1] is more than 7.00; in assay [2], more than 7.00; in assay [3] it was 6.00 to 7.00.
Regarding `CC(C)c1c(-c2cc(C(C)(C)O)c3nccn3c2)[nH]c2ccc(C3CCN(C(=O)CN(C)C)CC3)cc12` [Example 493, 2-(dimethylamino)-1-(4-(2-(8-(2-hydroxypropan-2-yl)imidazo[1,2-a]pyridin-6-yl)-3-isopropyl-1H-indol-5-yl)piperidin-1-yl) ethan-1-one], the figures for the pIC50 in assay [1], in assay [2] and in assay [3] were 4.30 to 6.00, more than 7.00 and 6.00 to 7.00, respectively.
`Cc1cc(-c2[nH]c3ccc(C4CCN(C(=O)CN(C)C)CC4)cc3c2C(C)C)cn2cc(C(=O)N(C)CCO)nc12` [Example 494, 6-(5-(1-(dimethylglycyl)piperidin-4-yl)-3-isopropyl-1H-indol-2-yl)-N-(2-hydroxyethyl)-N,8-dimethylimidazo[1,2-a]pyridine-2-carboxamide]: the figures for the pIC50 in assay [1], in assay [2] and in assay [3] were more than 7.00, more than 7.00 and 4.30 to 6.00, respectively.
Consider `CNC(=O)c1cn2cc(-c3[nH]c4ccc(C5CCN(C(=O)CN(C)C)CC5)cc4c3C(C)C)cc(C)c2n1` [Example 495, 6-(5-(1-(dimethylglycyl)piperidin-4-yl)-3-isopropyl-1H-indol-2-yl)-N,8-dimethylimidazo[1,2-a] pyridine-2-carboxamide], for which the values for the pIC50 in assay [1], in assay [2] and in assay [3] were more than 7.00, more than 7.00 and 6.00 to 7.00, respectively.
Turning to `COc1cc(-c2[nH]c3ccc(C4CCN(C(=O)CN(C)C)CC4)cc3c2C(C)C)cc2nc(C)nn12` [Example 496, 2-(dimethylamino)-1-(4-(3-isopropyl-2-(5-methoxy-2-methyl-[1,2,4]triazolo[1,5-a]pyridin-7-yl)-1H-indol-5-yl)piperidin-1-yl)ethan-1-one], the values for the pIC50 in assay [1], in assay [2] and in assay [3] were more than 7.00, more than 7.00 and 4.30 to 6.00, respectively.
Consider `CCOc1cc(-c2[nH]c3ccc(C4CCN(C(=O)CN(C)C)CC4)cc3c2C(C)C)cc2nc(C)nn12` [Example 497, 2-(dimethylamino)-1-(4-(2-(5-ethoxy-2-methyl-[1,2,4]triazolo[1,5-a]pyridin-7-yl)-3-isopropyl-1H-indol-5-yl)piperidin-1-yl)ethan-1-one], for which the values for the pIC50 in assay [1], in assay [2] and in assay [3] were more than 7.00, more than 7.00 and 4.30 to 6.00, respectively.
Consider `CCOc1cc(-c2[nH]c3ccc(C4CCN(C(=O)CN(C)C)CC4)cc3c2C(C)C)cc2ncnn12` [Example 498, 2-(dimethylamino)-1-(4-(2-(5-ethoxy-[1,2,4]triazolo[1,5-a]pyridin-7-yl)-3-isopropyl-1H-indol-5-yl)piperidin-1-yl)ethan-1-one], for which the figures for the pIC50 in assay [1], in assay [2] and in assay [3] were more than 7.00, more than 7.00 and 6.00 to 7.00, respectively.
In the case of `Cc1cn2c(C)cc(-c3[nH]c4ccc(C5CCN(C(=O)CN(C)C)CC5)cc4c3C(C)C)cc2n1` [Example 499, 2-(dimethylamino)-1-(4-(2-(2,5-dimethylimidazo[1,2-a]pyridin-7-yl)-3-isopropyl-1H-indol-5-yl)piperidin-1-yl)ethan-1-one], the pIC50 was 4.30 to 6.00 in assay [1], 6.00 to 7.00 in assay [2] and 6.00 to 7.00 in assay [3].
Turning to `Cc1cc(-c2[nH]c3ccc(C4CCN(C(=O)CN(C)C)CC4)cc3c2C(C)C)cc2nccn12` [Example 500, 2-(dimethylamino)-1-(4-(3-isopropyl-2-(5-methylimidazo[1,2-a]pyridin-7-yl)-1H-indol-5-yl)piperidin-1-yl)ethan-1-one], the negative-log IC50 (pIC50) in assay [1], in assay [2] and in assay [3] was 6.00 to 7.00 in each case.
For the compound `COc1cc(-c2[nH]c3ccc(C4CCN(C(=O)CN(C)C)CC4)cc3c2C(C)C)cc2nccn12` [Example 501, 2-(dimethylamino)-1-(4-(3-isopropyl-2-(5-methoxyimidazo[1,2-a]pyridin-7-yl)-1H-indol-5-yl)piperidin-1-yl)ethan-1-one], the pIC50 in assay [1], in assay [2] and in assay [3] was 6.00 to 7.00 throughout.
Regarding `CC(C)c1c(-c2cnc3ccnn3c2)[nH]c2ccc(C3CCN(C(=O)CN(C)C)CC3)cc12` [Example 502, 2-(dimethylamino)-1-(4-(3-isopropyl-2-(pyrazolo[1,5-a]pyrimidin-6-yl)-1H-indol-5-yl)piperidin-1-yl)ethan-1-one], the pIC50 in assay [1] was less than 5.51; in assay [2], 4.30 to 6.00; in assay [3] it was 6.00 to 7.00.
As for `CNCC(=O)N1CCC(c2ccc3[nH]c(-c4cnc5ccnn5c4)c(C(C)C)c3c2)CC1` [Example 503, 1-(4-(3-isopropyl-2-(pyrazolo[1,5-a]pyrimidin-6-yl)-1H-indol-5-yl)piperidin-1-yl)-2-(methylamino)ethan-1-one], the negative-log IC50 (pIC50) in assay [1] is less than 5.51; in assay [2] it was 6.00 to 7.00; in assay [3], 6.00 to 7.00.
